This note sets out measurements from ChEMBL document CHEMBL1201862, “PubChem BioAssay data set” (2004).

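The compound was tested at five concentrations on cells cultured in 96-well plates, with a 48-hour exposure period. At the GI50, growth is halved.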 Calls of active or inactive are those of the source. Cut-off read from the data, not from the text of the source: active = GI50 up to about 1.1 µM and inactive = higher.

Test systems include UACC-62; NCI-H23; K562; OVCAR-3; HCT-15; SK-MEL-5; SF-268; SF-295; CCRF-CEM; OVCAR-8; EKVX; LOX IMVI; HL-60; HOP-18; CAKI-1; HCT-116; U-251; NCI/ADR-RES; MDA-MB-435; BT-549.
Holding throughout (experiment): NCI anticancer screen, dose series, 48 h

Turning to `CC1=C(C(=O)Nc2ccccc2)C(c2ccc3c(c2)OCO3)C(C(=O)Nc2ccccc2)=C(C)N1`, the GI50 in the experiment on UACC-62 was 30.1 µM (inactive); with NCI-H23, 37.2 µM (inactive); with K562, 17.5 µM (inactive); in the experiment on OVCAR-3, 22.7 µM (inactive); in the experiment on HCT-15, 33 µM; in the experiment with SK-MEL-5, 33.7 µM (inactive). In addition, the GI50 in the experiment with SF-268 was 25.3 µM (inactive); in the experiment on SF-295, 35.3 µM (inactive); with CCRF-CEM it was 15.2 µM (inactive); in the experiment on OVCAR-8, 37.9 µM (inactive); in the experiment with EKVX, 53.3 µM (inactive); in the experiment with LOX IMVI, 24.4 µM (inactive). The GI50 is 18.1 µM (inactive) in the experiment with HL-60, 41.5 µM (inactive) in the experiment with HOP-18 and 31.3 µM (inactive) in the experiment on CAKI-1.
`COc1ccc(Nc2nc3ccccc3nc2-c2cccs2)cc1`: the GI50 in the experiment on UACC-62, in the experiment with NCI-H23, with HCT-116, in the experiment on K562, in the experiment on OVCAR-3 and with U-251 was > 100 µM (inactive) throughout. Besides, the GI50 is above 100 µM in the experiment with HCT-15; 65.3 µM (inactive) with SK-MEL-5; > 100 µM (inactive) with SF-268; 70.6 µM (inactive) in the experiment on SF-295; > 100 µM (inactive) with CCRF-CEM; > 100 µM (inactive) in the experiment on OVCAR-8. For the same compound, the GI50 in the experiment on EKVX was > 100 µM (inactive); with LOX IMVI, > 100 µM (inactive); in the experiment with HL-60 it was 17.5 µM (inactive); in the experiment on HOP-18, > 100 µM (inactive); with CAKI-1, > 100 µM (inactive).
In the case of `Nc1c(/N=N/c2ccc(-c3ccc(/N=N/c4c(O)ccc5cc(S(=O)(=O)O)cc(S(=O)(=O)O)c45)cc3)cc2)c(S(=O)(=O)O)cc2cc(S(=O)(=O)O)c(/N=N/c3ccccc3)c(O)c12`, the GI50 with UACC-62 is > 100 µM (inactive); in the experiment on NCI/ADR-RES, > 100 µM (inactive); in the experiment on NCI-H23 it was > 96.8 µM (inactive); with HCT-116, > 100 µM (inactive); with K562 it was > 100 µM (inactive); in the experiment on OVCAR-3, > 100 µM (inactive). Besides, the GI50 in the experiment on U-251 was > 100 µM (inactive); in the experiment on HCT-15, above 100 µM; with SK-MEL-5, > 100 µM (inactive); in the experiment with SF-268 it was > 100 µM (inactive); in the experiment on SF-295, > 77.1 µM (inactive); with CCRF-CEM it was > 100 µM (inactive). Moreover, the GI50 in the experiment with OVCAR-8 was > 100 µM (inactive); in the experiment on EKVX, > 100 µM (inactive); with LOX IMVI it was > 69 µM (inactive); in the experiment on HL-60, 85.1 µM (inactive); in the experiment on HOP-18 it was > 100 µM (inactive).
Take `CCCCCCCCCC/C=C/C=O`: the GI50 with UACC-62, in the experiment with NCI-H23, with HCT-116, in the experiment on K562, with OVCAR-3 and with U-251 was > 100 µM (inactive) each time. The GI50 with HCT-15 was above 100 µM; with SK-MEL-5, > 100 µM (inactive); in the experiment with SF-268 it was > 100 µM (inactive); in the experiment with SF-295, > 100 µM (inactive); with CCRF-CEM, > 100 µM (inactive); in the experiment with OVCAR-8, > 100 µM (inactive). Moreover, the GI50 in the experiment on EKVX was > 100 µM (inactive); in the experiment with LOX IMVI, > 100 µM (inactive); in the experiment with HL-60 it was 56.1 µM (inactive); in the experiment with HOP-18 it was > 100 µM (inactive).
Take `O=C(/C(=C/c1ccc(O)cc1)c1ccccc1)c1ccccc1`: the GI50 in the experiment on UACC-62 is 14.1 µM (inactive); in the experiment with NCI-H23, 15 µM (inactive); in the experiment on HCT-116, 16.7 µM (inactive); in the experiment with K562 it was 17.8 µM (inactive); with U-251, 16.2 µM (inactive); with HCT-15 it was 18 µM. Further, the GI50 is 15 µM (inactive) in the experiment with SK-MEL-5; 17.3 µM (inactive) in the experiment on SF-268; 16.1 µM (inactive) in the experiment with SF-295; 20 µM (inactive) in the experiment with CCRF-CEM; 27 µM (inactive) in the experiment on OVCAR-8; 20 µM (inactive) in the experiment on EKVX. Further, the GI50 in the experiment with LOX IMVI is 13.2 µM (inactive); in the experiment on HL-60 it was 13.6 µM (inactive); in the experiment on HOP-18 it was 18.8 µM (inactive); in the experiment with CAKI-1 it was 19.1 µM (inactive).
On to `N/C(S)=N/N=C/c1ccc(O)cn1`, for which the GI50 with MDA-MB-435 was 10.5 µM (inactive); in the experiment with NCI/ADR-RES it was 4.01 µM (inactive); in the experiment with NCI-H23, 6.11 µM (inactive); with HCT-116, 10.9 µM (inactive); in the experiment on K562, 4.99 µM (inactive); with OVCAR-3 it was 3.52 µM (inactive). Moreover, the GI50 in the experiment with U-251 is 6.18 µM (inactive); with HCT-15, 9.08 µM; in the experiment on SK-MEL-5, 5.65 µM (inactive); in the experiment with SF-268, 4.3 µM (inactive); with SF-295, 20.4 µM (inactive); in the experiment with CCRF-CEM, 1.78 µM (inactive). Besides, the GI50 was 3.51 µM (inactive) in the experiment on OVCAR-8; 14.5 µM (inactive) with EKVX; 5.13 µM (inactive) in the experiment with LOX IMVI; 4.12 µM (inactive) with HL-60; 27.1 µM (inactive) in the experiment on HOP-18; 44.5 µM (inactive) in the experiment with BT-549.
On to `CC1=C(C(=O)Nc2cccc(Cl)c2)C(c2ccc([N+](=O)[O-])cc2)C(C(=O)Nc2cccc(Cl)c2)=C(C)N1`, for which the GI50 with UACC-62 is 14 µM (inactive); in the experiment on NCI-H23, 21.3 µM (inactive); in the experiment with HCT-116, 13.1 µM (inactive); in the experiment on K562, 24.8 µM (inactive); with OVCAR-3, 25.6 µM (inactive); in the experiment with U-251, 15.8 µM (inactive). In addition, the GI50 with HCT-15 is 23.7 µM; in the experiment on SK-MEL-5, 17.5 µM (inactive); in the experiment on SF-268 it was 27 µM (inactive); with SF-295, 23.6 µM (inactive); with CCRF-CEM it was 10.9 µM (inactive); with OVCAR-8 it was 30.7 µM (inactive). For the same compound, the GI50 is 33.3 µM (inactive) with EKVX, 14.9 µM (inactive) in the experiment on LOX IMVI, 17.9 µM (inactive) with HL-60 and 16.5 µM (inactive) with HOP-18.
As to `C=CC[N+](CCO)(CCO)CCCCCCCCCCCCCCCCCC`, the GI50 in the experiment on UACC-62 was 4.58 µM (inactive); with NCI/ADR-RES it was 23.5 µM (inactive); in the experiment on NCI-H23, 12.5 µM (inactive); in the experiment on HCT-116 it was 3.4 µM (inactive); with K562, 2.96 µM (inactive); in the experiment with OVCAR-3, 5.11 µM (inactive). Besides, the GI50 is 1.97 µM (inactive) in the experiment on U-251; 12.8 µM in the experiment on HCT-15; 8.13 µM (inactive) with SK-MEL-5; 3.33 µM (inactive) in the experiment with SF-268; 4.41 µM (inactive) in the experiment with SF-295; 1.23 µM (inactive) in the experiment on CCRF-CEM. Besides, the GI50 in the experiment on OVCAR-8 was 9.25 µM (inactive); in the experiment with EKVX it was 17 µM (inactive); in the experiment on LOX IMVI, 2.75 µM (inactive); with HL-60, 0.714 µM (active); in the experiment with HOP-18, 8.34 µM (inactive); in the experiment with CAKI-1, 4.46 µM (inactive).
For `CCOC(=O)C(=O)Nc1ccccc1CC`, the GI50 in the experiment on UACC-62, in the experiment with NCI-H23, with HCT-116, with K562, with OVCAR-3 and in the experiment with U-251 was > 100 µM (inactive) each time. Also, the GI50 with SK-MEL-5, in the experiment on SF-268, in the experiment with SF-295, in the experiment on CCRF-CEM, in the experiment with OVCAR-8 and in the experiment with EKVX was > 100 µM (inactive) in each case. In addition, the GI50 in the experiment with LOX IMVI, in the experiment with HL-60, in the experiment with HOP-18 and in the experiment on CAKI-1 was > 100 µM (inactive) in each case.
Take `CC1=C2[C@@H](c3ccccc3)C3C=CC2(C=C3C(F)(F)F)N(C(=O)NC2CCCCC2)C1=O` (some centres not stated): the GI50 in the experiment with UACC-62 was > 100 µM (inactive); in the experiment on NCI-H23 it was 59.8 µM (inactive); in the experiment on HCT-116, 32.4 µM (inactive); with K562, 36.6 µM (inactive); in the experiment on OVCAR-3, > 100 µM (inactive); with U-251 it was > 100 µM (inactive). The GI50 with HCT-15 was 81.3 µM; with SK-MEL-5, 43.5 µM (inactive); in the experiment on SF-268, 91 µM (inactive); in the experiment with SF-295, > 100 µM (inactive); with CCRF-CEM it was 25.1 µM (inactive); with OVCAR-8 it was > 100 µM (inactive). The GI50 was 69 µM (inactive) in the experiment on EKVX; 44 µM (inactive) in the experiment on LOX IMVI; 14.8 µM (inactive) in the experiment with HL-60; > 100 µM (inactive) in the experiment on HOP-18; 51.8 µM (inactive) in the experiment on CAKI-1.
In the case of `CCOC(=O)C1(Cc2ccc3ccccc3c2)CCCCC(=O)N1` (configuration not stated), the GI50 in the experiment on UACC-62 is 36.1 µM (inactive); with NCI-H23 it was 26 µM (inactive); in the experiment on K562, 4.55 µM (inactive); with OVCAR-3, 17.5 µM (inactive); in the experiment with U-251, 41.1 µM (inactive); in the experiment on HCT-15, 28.8 µM. Besides, the GI50 with SF-268 is 49.8 µM (inactive); in the experiment with SF-295, 8.89 µM (inactive); with CCRF-CEM, 23.3 µM (inactive); with OVCAR-8 it was 55.5 µM (inactive); with EKVX, 54.8 µM (inactive); in the experiment with LOX IMVI it was 24.1 µM (inactive). Moreover, the GI50 in the experiment on HL-60 was 12.1 µM (inactive); with HOP-18, > 100 µM (inactive); in the experiment on CAKI-1 it was 43.1 µM (inactive).
For `COC[C@H](C)/N=C/N1CCc2ccccc2C1(Cc1ccccc1)Cc1ccccc1`, the GI50 in the experiment on UACC-62 is 26.9 µM (inactive); in the experiment on NCI-H23 it was 17.2 µM (inactive); with HCT-116, 10.8 µM (inactive); in the experiment with K562, 6.97 µM (inactive); with OVCAR-3 it was 22.1 µM (inactive); in the experiment with U-251 it was 13.8 µM (inactive). Moreover, the GI50 with HCT-15 was 11 µM; in the experiment on SK-MEL-5, 47.9 µM (inactive); in the experiment with SF-268 it was 21.9 µM (inactive); in the experiment on SF-295, 14.5 µM (inactive); in the experiment on CCRF-CEM, 12.9 µM (inactive); in the experiment on OVCAR-8, 15.1 µM (inactive). The GI50 is 29.9 µM (inactive) in the experiment on EKVX, 6.17 µM (inactive) with HL-60, 11 µM (inactive) with HOP-18 and 16.3 µM (inactive) with CAKI-1.
